Values of other authors as cited in article PMC7449217, “The FDA-Approved Drug Nelfinavir Inhibits Lytic Cell-Free but Not Cell-Associated Nonlytic Transmission of Human Adenovirus” (Antimicrobial Agents and Chemotherapy, 2020).

System: HAdV-C2-dE3B-GFP
Design: method as in earlier work
Conditions: A549, 1.25 μM compound, normalized to neg. ctr., analysis EPFL; cited from earlier work
For `CCCCCCCCCCCCCCCC[N+](C)(C)CCN(Cc1ccc(OC)cc1)c1ncccn1` [Thonzonium bromide], the “Normalized mean read-outs: Infected nuclei” value is listed as 0.45, the “Normalized mean read-outs: Infection index” value is listed as 0.56 and the “Normalized mean read-outs: Nuclei” value is listed as 0.81. For the same compound, the “Normalized mean read-outs: Plaques” value was 0.56 and the “Normalized mean read-outs: Virus intensity” value was 0.50 AU. In the case of `Cc1cn([C@H]2C[C@H](F)[C@@H](CO)O2)c(=O)[nH]c1=O` [3'-deoxy-3'-fluorothymidine], the “Normalized mean read-outs: Infected nuclei” value is listed as 0.12, the “Normalized mean read-outs: Infection index” value is listed as 0.17 and the “Normalized mean read-outs: Nuclei” value is listed as 0.70. The “Normalized mean read-outs: Plaques” value was 0.00148 and the “Normalized mean read-outs: Virus intensity” value was 0.32 AU. For `Nc1c2ccccc2nc2ccccc12` [Aminacrine], the “Normalized mean read-outs: Infected nuclei” value is listed as 0.60, the “Normalized mean read-outs: Infection index” value is listed as 0.42 and the “Normalized mean read-outs: Nuclei” value is listed as 1.42. For the same compound, the “Normalized mean read-outs: Plaques” value was 0.67 and the “Normalized mean read-outs: Virus intensity” value was 0.51 AU. In the case of `Cc1cc(N)c2ccccc2[n+]1CCCCCCCCCC[n+]1c(C)cc(N)c2ccccc21` [Dequalinium dichloride], the “Normalized mean read-outs: Infected nuclei” value is given as 0.33, the “Normalized mean read-outs: Infection index” value is given as 0.46 and the “Normalized mean read-outs: Nuclei” value is given as 0.71. For the same compound, the “Normalized mean read-outs: Plaques” value was 0.44 and the “Normalized mean read-outs: Virus intensity” value was 0.38 AU.

Same assay, conditions: A549, 1.25 μM compound, normalized to neg. ctr., analysis UZH; cited from earlier work
In the case of `CCCCCCCCCCCCCCCC[N+](C)(C)CCN(Cc1ccc(OC)cc1)c1ncccn1` [Thonzonium bromide], the “Normalized mean read-outs: Infected nuclei” value is listed as 0.54, the “Normalized mean read-outs: Infection index” value is listed as 0.63 and the “Normalized mean read-outs: Nuclei” value is listed as 0.84. The “Normalized mean read-outs: Plaques” value was 0.54 and the “Normalized mean read-outs: Virus intensity” value was 0.49 AU. For `Cc1cn([C@H]2C[C@H](F)[C@@H](CO)O2)c(=O)[nH]c1=O` [3'-deoxy-3'-fluorothymidine], the “Normalized mean read-outs: Infected nuclei” value is given as 0.13, the “Normalized mean read-outs: Infection index” value is given as 0.15 and the “Normalized mean read-outs: Nuclei” value is given as 0.83. The “Normalized mean read-outs: Plaques” value was 0.00429 and the “Normalized mean read-outs: Virus intensity” value was 0.30 AU. In the case of `Nc1c2ccccc2nc2ccccc12` [Aminacrine], the “Normalized mean read-outs: Infected nuclei” value is listed as 0.53, the “Normalized mean read-outs: Infection index” value is listed as 0.62 and the “Normalized mean read-outs: Nuclei” value is listed as 0.87. The “Normalized mean read-outs: Plaques” value was 0.75 and the “Normalized mean read-outs: Virus intensity” value was 0.50 AU. In the case of `Cc1cc(N)c2ccccc2[n+]1CCCCCCCCCC[n+]1c(C)cc(N)c2ccccc21` [Dequalinium dichloride], the “Normalized mean read-outs: Infected nuclei” value is listed as 0.49, the “Normalized mean read-outs: Infection index” value is listed as 0.62 and the “Normalized mean read-outs: Nuclei” value is listed as 0.79. For the same compound, the “Normalized mean read-outs: Plaques” value was 0.51 and the “Normalized mean read-outs: Virus intensity” value was 0.37 AU.

System: A549 cells
Conditions: cited from earlier work
For `Cc1cn([C@H]2C[C@H](F)[C@@H](CO)O2)c(=O)[nH]c1=O` [3'-deoxy-3'-fluorothymidine], the Toxic is given as “no”. In the case of `Nc1c2ccccc2nc2ccccc12` [Aminacrine], the Toxic is given as “no”. In the case of `Cc1cc(N)c2ccccc2[n+]1CCCCCCCCCC[n+]1c(C)cc(N)c2ccccc21` [Dequalinium dichloride], the Toxic is given as “yes”.
